Reference: patent US20100267561A1, “HERBICIDAL PYRIDAZINONE DERIVATIVES” (priority 2007, published 2010)

What was measured:
Assay type in all cases: in vivo
rice (Oryza sativa) = assay: Test B flooded paddy test plant response
In short: (§1)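 Compounds were added directly to paddy water over 2-leaf-stage plants in pots flooded 3 cm above soil, water depth maintained. Visual injury scored against controls after 13 to 15 days in greenhouse, 0 (none) to 100 (complete control); dash indicates no result.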

[1] = system: ducksalad (Heteranthera limosa); assay: Test B flooded paddy test plant response
In short: as §1

[2] = system: umbrella sedge (Cyperus difformis); assay: Test B flooded paddy test plant response
In short: as §1

[3] = system: barnyardgrass (Echinochloa crus-galli); assay: Test B flooded paddy test plant response
In short: as §1

[4] = system: large crabgrass (Digitaria sanguinalis); assay: Test B pre-/postemergence plant response
Description: (§2) Seeds of plant species selected from blackgrass (Alopecurus myosuroides), downy bromegrass (Bromus tectorum), green foxtail (Setaria viridis), Italian ryegrass (Lolium multiflorum), wheat (Triticum aestivum), wild oat (Avena fatua), catchweed bedstraw (Galium aparine), bermudagrass (Cynodon dactylon), surinam grass (Brachiaria decumbens), cocklebur (Xanthium strumarium), corn (Zea mays), large crabgrass (Digitaria sanguinalis), woolly cupgrass (Eriochloa villosa), giant foxtail (Setaria faberii), goosegrass (Eleusine indica), johnsongrass (Sorghum halepense), kochia (Kochia scoparia), lambsquarters (Chenopodium album), morningglory (Ipomoea coccinea), eastern black (E.B.) nightshade (Solanum ptycanthum), yellow nutsedge (Cyperus esculentus), pigweed (Amaranthus retroflexus), common ragweed (Ambrosia elation), Russian thistle (Salsola iberica), soybean (Glycine max), common (oilseed) sunflower (Helianthus annuus), and velvetleaf (Abutilon theophrasti) were planted and treated preemergence with test chemicals formulated in a non-phytotoxic solvent mixture which included a surfactant.
(§3) At the same time, plants selected from these crop and weed species and also winter barley (Hordeum vulgare), canarygrass (Phalaris minor), chickweed (Stellaria media) and windgrass (Apera spica-venti) were treated with postemergence applications of some of the test chemicals formulated in the same manner. Plants ranged in height from 2 to 18 cm (1- to 4-leaf stage) for postemergence treatments.
(§4) Plant species in the flooded paddy test consisted of rice (Oryza sativa), umbrella sedge (Cyperus difformis), ducksalad (Heteranthera limosa) and barnyardgrass (Echinochloa crus-galli) grown to the 2-leaf stage for testing. At time of treatment, test pots were flooded to 3 cm above the soil surface, treated by application of test compounds directly to the paddy water, and then maintained at that water depth for the duration of the test. Treated plants and controls were maintained in a greenhouse for 13 to 15 days, after which time all species were compared to controls and visually evaluated. Plant response ratings, summarized in Table B, are based on a scale of 0 to 100 where 0 is no effect and 100 is complete control. A dash (-) response means no test result.

[5] = system: common ragweed (Ambrosia elation); assay: Test B pre-/postemergence plant response
Description: as §2, §3, §4

[6] = system: Italian ryegrass (Lolium multiflorum); assay: Test B pre-/postemergence plant response
Description: as §2, §3, §4

[7] = system: velvetleaf (Abutilon theophrasti); assay: Test B pre-/postemergence plant response
Description: as §2, §3, §4

[8] = system: lambsquarters (Chenopodium album); assay: Test B pre-/postemergence plant response
Description: as §2, §3, §4

soybean (Glycine max) = assay: Test B pre-/postemergence plant response
Description: as §2, §3, §4

[9] = system: bermudagrass (Cynodon dactylon); assay: Test B pre-/postemergence plant response
Description: as §2, §3, §4

[10] = system: cocklebur (Xanthium strumarium); assay: Test B pre-/postemergence plant response
Description: as §2, §3, §4

[11] = system: goosegrass (Eleusine indica); assay: Test B pre-/postemergence plant response
Description: as §2, §3, §4

[12] = Flood (flooded paddy test), 62 g ai/ha, scale 0 to 100, 0 no effect, 100 complete control
[13] = Flood (flooded paddy test), 125 g ai/ha, scale 0 to 100, 0 no effect, 100 complete control
[14] = Flood (flooded paddy test), 250 g ai/ha, scale 0 to 100, 0 no effect, 100 complete control
[15] = Flood, 31 g ai/ha, scale 0 to 100
[16] = 8 g ai/ha, postemergence, 0-100 scale
[17] = Postemergence, 16 g ai/ha, scale 0 to 100
[18] = Postemergence, 31 g ai/ha, scale 0 to 100
[19] = Postemergence, 62 g ai/ha, scale 0 to 100, 0 no effect, 100 complete control
[20] = 16 g ai/ha, postemergence, 0-100 scale
[21] = Flood, 62 g ai/ha, scale 0 to 100
[22] = Preemergence, 8 g ai/ha, scale 0 to 100 (0 no effect, 100 complete control)
[23] = Preemergence, 31 g ai/ha, scale 0 to 100 (0 no effect, 100 complete control)
[24] = Preemergence, 62 g ai/ha, 0 to 100 scale, 0 no effect, 100 complete control
[25] = Preemergence, 16 g ai/ha, scale 0 to 100

CCc1cc(-c2ccc(Br)cc2)nn1-c1c(O)cnn(CC(F)(F)F)c1=O [Compound 73]
90: Goosegrass plant response rating [11, 20] | Plant response rating, Goosegrass [11, 18] | Plant response rating, Goosegrass [11, 19]
70: Plant response rating, Crabgrass, Large [4, 17] | Ryegrass, Italian plant response rating [6, 20] | Goosegrass plant response rating [11, 16]
10: Plant response rating, Soybean (soybean (Glycine max); [18]) | Plant response rating, Soybean (soybean (Glycine max); [19]) | Plant response rating, Bermudagrass [9, 18] | Plant response rating, Bermudagrass [9, 19]
0: Plant response rating, Rice (rice (Oryza sativa); [12]) | Plant response rating, Rice (rice (Oryza sativa); [13]) | Plant response rating, Rice (rice (Oryza sativa); [14]) | Plant response rating, Rice (rice (Oryza sativa); [15]) | Plant response rating, Ducksalad [1, 12] | Plant response rating, Ducksalad [1, 13] | Plant response rating, Ducksalad [1, 14] | Plant response rating, Ducksalad [1, 15] | Plant response rating, Sedge, Umbrella [2, 12] | Plant response rating, Sedge, Umbrella [2, 13] | Plant response rating, Sedge, Umbrella [2, 14] | Plant response rating, Sedge, Umbrella [2, 15] | Plant response rating, Barnyardgrass [3, 12] | Plant response rating, Barnyardgrass [3, 13] | Plant response rating, Barnyardgrass [3, 14] | Plant response rating, Barnyardgrass [3, 15] | Ragweed plant response rating [5, 16] | Ragweed plant response rating [5, 20] | Plant response rating, Ragweed [5, 18] | Plant response rating, Ragweed [5, 19] | Velvetleaf plant response rating [7, 16] | Velvetleaf plant response rating [7, 20] | Plant response rating, Velvetleaf [7, 18] | Plant response rating, Velvetleaf [7, 19] | Lambsquarters plant response rating [8, 16] | Lambsquarters plant response rating [8, 20] | Plant response rating, Lambsquarters [8, 18] | Plant response rating, Lambsquarters [8, 19] | Soybean plant response rating (soybean (Glycine max); [16]) | Soybean plant response rating (soybean (Glycine max); [20]) | Bermudagrass plant response rating [9, 16] | Plant response rating, Bermudagrass [9, 17] | Cocklebur plant response rating [10, 16] | Plant response rating, Cocklebur [10, 17] | Plant response rating, Cocklebur [10, 18] | Plant response rating, Cocklebur [10, 19]
45: Crabgrass, Large plant response rating [4, 16] | Ryegrass, Italian plant response rating [6, 16]
100: Plant response rating, Crabgrass, Large [4, 18] | Plant response rating, Crabgrass, Large [4, 19] | Plant response rating, Ryegrass, Italian [6, 18] | Plant response rating, Ryegrass, Italian [6, 19]

CCc1c(C)c(-c2ccc(Br)cc2)nn1-c1c(O)cnn(C)c1=O [Compound 83]
55: Bermudagrass plant response rating [9, 22] | Plant response rating, Goosegrass [11, 18] | Goosegrass plant response rating [11, 22]
0: Plant response rating, Rice (rice (Oryza sativa); [13]) | Plant response rating, Rice (rice (Oryza sativa); [14]) | Plant response rating, Rice (rice (Oryza sativa); [15]) | Plant response rating, Rice (rice (Oryza sativa); [21]) | Plant response rating, Ducksalad [1, 13] | Plant response rating, Ducksalad [1, 15] | Plant response rating, Ducksalad [1, 21] | Plant response rating, Sedge, Umbrella [2, 13] | Plant response rating, Sedge, Umbrella [2, 14] | Plant response rating, Sedge, Umbrella [2, 15] | Plant response rating, Sedge, Umbrella [2, 21] | Plant response rating, Barnyardgrass [3, 13] | Plant response rating, Barnyardgrass [3, 14] | Plant response rating, Barnyardgrass [3, 15] | Plant response rating, Barnyardgrass [3, 21] | Crabgrass, Large plant response rating [4, 22] | Ragweed plant response rating [5, 16] | Ragweed plant response rating [5, 20] | Plant response rating, Ragweed [5, 18] | Plant response rating, Ragweed [5, 19] | Ragweed plant response rating [5, 22] | Plant response rating, Ragweed [5, 23] | Plant response rating, Ragweed [5, 24] | Ragweed plant response rating [5, 25] | Velvetleaf plant response rating [7, 16] | Velvetleaf plant response rating [7, 20] | Plant response rating, Velvetleaf [7, 18] | Velvetleaf plant response rating [7, 22] | Plant response rating, Velvetleaf [7, 23] | Plant response rating, Velvetleaf [7, 24] | Velvetleaf plant response rating [7, 25] | Lambsquarters plant response rating [8, 16] | Lambsquarters plant response rating [8, 20] | Plant response rating, Lambsquarters [8, 18] | Plant response rating, Lambsquarters [8, 19] | Soybean plant response rating (soybean (Glycine max); [16]) | Soybean plant response rating (soybean (Glycine max); [20]) | Plant response rating, Soybean (soybean (Glycine max); [18]) | Plant response rating, Soybean (soybean (Glycine max); [19]) | Soybean plant response rating (soybean (Glycine max); [22]) | Plant response rating, Soybean (soybean (Glycine max); [23]) | Plant response rating, Soybean (soybean (Glycine max); [24]) | Soybean plant response rating (soybean (Glycine max); [25]) | Cocklebur plant response rating [10, 16] | Cocklebur plant response rating [10, 20] | Plant response rating, Cocklebur [10, 18] | Plant response rating, Cocklebur [10, 19] | Cocklebur plant response rating [10, 22] | Plant response rating, Cocklebur [10, 23] | Plant response rating, Cocklebur [10, 24] | Cocklebur plant response rating [10, 25] | Goosegrass plant response rating [11, 16]
60: Plant response rating, Goosegrass [11, 19]
45: Goosegrass plant response rating [11, 20]
90: Plant response rating, Bermudagrass [9, 19]
95: Crabgrass, Large plant response rating [4, 20] | Plant response rating, Goosegrass [11, 23]
85: Plant response rating, Crabgrass, Large [4, 23] | Ryegrass, Italian plant response rating [6, 16] | Ryegrass, Italian plant response rating [6, 25] | Plant response rating, Bermudagrass [9, 18]
30: Ryegrass, Italian plant response rating [6, 22]
98: Ryegrass, Italian plant response rating [6, 20]
40: Bermudagrass plant response rating [9, 16]
35: Crabgrass, Large plant response rating [4, 25]
100: Plant response rating, Crabgrass, Large [4, 18] | Plant response rating, Crabgrass, Large [4, 19] | Plant response rating, Crabgrass, Large [4, 24] | Plant response rating, Ryegrass, Italian [6, 18] | Plant response rating, Ryegrass, Italian [6, 19] | Plant response rating, Ryegrass, Italian [6, 23] | Plant response rating, Ryegrass, Italian [6, 24] | Lambsquarters plant response rating [8, 22] | Plant response rating, Lambsquarters [8, 23] | Plant response rating, Lambsquarters [8, 24] | Lambsquarters plant response rating [8, 25] | Plant response rating, Bermudagrass [9, 23] | Plant response rating, Bermudagrass [9, 24] | Plant response rating, Goosegrass [11, 24]
80: Crabgrass, Large plant response rating [4, 16] | Goosegrass plant response rating [11, 25]
20: Plant response rating, Velvetleaf [7, 19]
65: Bermudagrass plant response rating [9, 20] | Bermudagrass plant response rating ([9]; Preemergence, 16 g ai/ha, scale 0 to 100 (0 no effect, 100 complete control))
